# Data as given in patent publication US11666558B2, “Methods of treating intraocular pressure with activators of Tie-2” (EyePoint Pharmaceuticals, Inc., priority 2015, dated 2023).
# Counter-ions that a name gives are not always drawn. Like-named read-outs stand apart in the source and are kept apart here.
# Assay: Ocular tissue concentrations (aqueous humor, vitreous humor, iris, retina, choroid, cornea) after topical ocular, subcutaneous and intravitreal administration
# Assay type: in vivo, New Zealand White rabbits
# Conditions: for concentration at 4 h / concentration at 0.5 h / concentration at 1 hr / concentration at 2 hr / concentration at 4 hr / concentration at 0.5 hr / concentration at 2 h / concentration at 1 h / concentration at 6 hr / concentration at 24 h / concentration at 48 h / concentration at 72 h: New Zealand White, rabbit; for concentration at 6 hr / concentration at 24 h / concentration at 48 h / concentration at 72 h: other: intravitreal, 2.5 mg per eye, Group 4 intravitreal 2.5 mg per eye
# Description: To measure the concentration of Compound 1 in plasma and ocular tissues following topical ocular, subcutaneous, and intravitreal administration, New Zealand White rabbits were administered Compound 1, and plasma and ocular samples were collected at pre-determined time points. Compound 1 formulations were prepared fresh on each day of dosing.
# Ocular tissue samples from both eyes of each animal were collected and weights were recorded. Plasma and ocular tissue sample concentrations of Compound 1 were determined by LC-MS/MS.
# New Zealand White rabbits weighing 2.5 to 3.5 kg were used on this study. Rabbits were housed one per cage. Animals were not fasted and only healthy animals with no ocular illness were used. Two rabbits per group were sacrificed at each of four ocular tissue sampling time points for a total of eight rabbits per group.
# Animals were anesthetized for ocular (topical) and intravitreal dosing following the 12IA7 IACUC protocol. Each rabbit received a bolus dose of test formulation either via topical ocular administration 3 times daily on Days 1 and 2 (at 0, 6, and 12 hours), and once on Day 3 (at 0 hours) into both eyes; via intravitreal administration into both eyes once on Day 1 (at 0 hours); or via subcutaneous administration 2 times daily on Days 1 and 2 (at 0 and 8 hours) and once daily on Day 3 (at 0 hours). Doses were given within an approximately 1 hour window each day where applicable.
# On Day 1, for intravitreal administration, or on Day 3, for topical ocular and subcutaneous administration, at the appropriate ocular tissue collection time points, animals were euthanized and both eyes were enucleated immediately. Following enucleation, each eye was rinsed with phosphate-buffered saline. Ocular tissue samples from both eyes of each animal were collected at predetermined time points and weights were recorded. All the samples were frozen immediately on dry ice, and stored at −60° C. to −80° C. pending bioanalysis.
# An LC-MS/MS method was developed for the determination of Compound 1 in rabbit aqueous tissues (plasma, aqueous and vitreous humor) and solid ocular tissue samples. A pre-study standard curve was analyzed to determine the specificity, range, and lower limit of quantitation of the method. Plasma and tissue homogenate study samples were extracted and analyzed. All the samples were treated identically to the standards.
# One eight-point standard curve was used in each analytical batch. To be accepted, each batch must have had at least five of eight standards with accuracy within ±20% of nominal, except at the lower limit of quantification (LLOQ), where ±25% was acceptable.
# Concentration versus time data is plotted in FIGS. 3-16. All data are expressed as ng/g of the free drug. Samples that were below the limit of quantitation (0.2 ng/mL) were not used in the calculation of averages.
# [1] = vitreous humor, read-out: vitreous humor Average Conc.
# [2] = vitreous humor, read-out: vitreous humor Conc., individual eyes (OD, OS)
smiles,measurement,setting,value
COC(=O)N[C@@H](Cc1ccccc1)C(=O)N[C@@H](Cc1ccc(NS(=O)(=O)O)cc1)c1csc(-c2cccs2)n1 [Compound 1 sodium salt],concentration at 4 h,"aqueous humor, topical, 1.2 mg/eye, Group 1 topical ocular 1.2 mg/eye, 4.0 hr, read-out: aqueous humor Average Conc.",8.24 ng/g
same,concentration at 0.5 h,"choroid, topical, 1.2 mg/eye, topical ocular 1.2 mg/eye (~0.7 mg/kg/dose), read-out: Choroid tissue Average",57.7 ng/g
same,concentration at 1 hr,"choroid, topical, 1.2 mg/eye, topical ocular 1.2 mg/eye (~0.7 mg/kg/dose), 1 hr, read-out: Choroid tissue Average",32.2 ng/g
same,concentration at 2 hr,"choroid, topical, 1.2 mg/eye, topical ocular 1.2 mg/eye (~0.7 mg/kg/dose), 2 hr, read-out: Choroid tissue Average",59.2 ng/g
same,concentration at 4 hr,"choroid, topical, 1.2 mg/eye, topical ocular 1.2 mg/eye (~0.7 mg/kg/dose), 4 hr, read-out: Choroid tissue Average",165 ng/g
same,concentration at 0.5 hr,"cornea, topical, 1.2 mg/eye, topical ocular 1.2 mg/eye (~0.7 mg/kg/dose), read-out: Cornea tissue Average",1020 ng/g
same,concentration at 0.5 hr,"cornea, topical, 1.2 mg/eye, topical ocular 1.2 mg/eye (~0.7 mg/kg/dose), read-out: Cornea tissue Conc., individual eyes (OD, OS)",427 ng/g
same,concentration at 1 hr,"cornea, topical, 1.2 mg/eye, topical ocular 1.2 mg/eye (~0.7 mg/kg/dose), 1 hr, read-out: Cornea tissue Average",548 ng/g
same,concentration at 2 hr,"cornea, topical, 1.2 mg/eye, topical ocular 1.2 mg/eye (~0.7 mg/kg/dose), 2 hr, read-out: Cornea tissue Average",1070 ng/g
same,concentration at 4 hr,"cornea, topical, 1.2 mg/eye, topical ocular 1.2 mg/eye (~0.7 mg/kg/dose), 4 hr, read-out: Cornea tissue Average",534 ng/g
same,concentration at 0.5 hr,"iris homogenate, topical, 1.2 mg/eye, topical ocular 1.2 mg/eye (~0.7 mg/kg/dose), read-out: Iris homogenate Conc., individual eyes (OD, OS)",2.55 ng/mL
same,concentration at 0.5 hr,"iris, topical, 1.2 mg/eye, topical ocular 1.2 mg/eye (~0.7 mg/kg/dose), read-out: Iris tissue Average",24.3 ng/g
same,concentration at 0.5 hr,"iris, topical, 1.2 mg/eye, topical ocular 1.2 mg/eye (~0.7 mg/kg/dose), read-out: Iris tissue Conc., individual eyes (OD, OS)",17.8 ng/g
same,concentration at 1 hr,"iris, topical, 1.2 mg/eye, topical ocular 1.2 mg/eye (~0.7 mg/kg/dose), 1 hr, read-out: Iris tissue Average",55.2 ng/g
same,concentration at 2 h,"iris, topical, 1.2 mg/eye, topical ocular 1.2 mg/eye (~0.7 mg/kg/dose), 2 hr, read-out: Iris tissue Average",51.9 ng/g
same,concentration at 4 h,"iris, topical, 1.2 mg/eye, topical ocular 1.2 mg/eye (~0.7 mg/kg/dose), 4 hr, read-out: Iris tissue Average",261 ng/g
same,concentration at 4 h,"iris, topical, 1.2 mg/eye, topical ocular 1.2 mg/eye (~0.7 mg/kg/dose), 4 hr, read-out: Iris tissue Conc., individual eyes (OD, OS)",30.7 ng/g
same,concentration at 0.5 h,"retina, topical, 1.2 mg/eye, topical ocular 1.2 mg/eye (~0.7 mg/kg/dose), read-out: Retina tissue Average",25.6 ng/g
same,concentration at 1 h,"retina, topical, 1.2 mg/eye, topical ocular 1.2 mg/eye (~0.7 mg/kg/dose), 1 hr, read-out: Retina tissue Average",59.2 ng/g
same,concentration at 2 h,"retina, topical, 1.2 mg/eye, topical ocular 1.2 mg/eye (~0.7 mg/kg/dose), 2 hr, read-out: Retina tissue Average",48.3 ng/g
same,concentration at 4 h,"retina, topical, 1.2 mg/eye, topical ocular 1.2 mg/eye (~0.7 mg/kg/dose), 4 hr, read-out: Retina tissue Average",405 ng/g
same,concentration at 6 hr,[1],988000 ng/g
same,concentration at 6 hr,[2],592000 ng/mL
same,concentration at 24 h,[1],350000 ng/g
same,concentration at 24 h,[2],438000 ng/mL
same,concentration at 48 h,[1],82000 ng/g
same,concentration at 48 h,[2],85200 ng/mL
same,concentration at 72 h,[1],13400 ng/g
same,concentration at 72 h,[2],14500 ng/mL
same,concentration at 0.5 hr,"vitreous humor, subcutaneous, 5 mg/kg, Group 2 subcutaneous 5 mg/kg, read-out: vitreous humor Average Conc.",0.83 ng/g
same,concentration at 0.5 hr,"vitreous humor, subcutaneous, 5 mg/kg, Group 2 subcutaneous 5 mg/kg, read-out: vitreous humor Conc., individual eyes (OD, OS)",0.77 ng/mL
same,concentration at 1 hr,"vitreous humor, subcutaneous, 5 mg/kg, Group 2 subcutaneous 5 mg/kg, 1.0 hr, read-out: vitreous humor Average Conc.",0.45 ng/g
same,concentration at 0.5 h,"vitreous humor, topical, 1.2 mg/eye, Group 1 topical ocular 1.2 mg/eye, read-out: vitreous humor Average Conc.",0.61 ng/g
same,concentration at 0.5 h,"vitreous humor, topical, 1.2 mg/eye, Group 1 topical ocular 1.2 mg/eye, read-out: vitreous humor Conc., individual eyes (OD, OS)",0.528 ng/mL
same,concentration at 1 h,"vitreous humor, topical, 1.2 mg/eye, Group 1 topical ocular 1.2 mg/eye, 1.0 hr, read-out: vitreous humor Average Conc.",2.09 ng/g
same,concentration at 2 hr,"vitreous humor, topical, 1.2 mg/eye, Group 1 topical ocular 1.2 mg/eye, 2.0 hr, read-out: vitreous humor Average Conc.",3.33 ng/g
same,concentration at 2 hr,"vitreous humor, topical, 1.2 mg/eye, Group 1 topical ocular 1.2 mg/eye, 2.0 hr, read-out: vitreous humor Conc., individual eyes (OD, OS)",1.14 ng/mL
same,concentration at 4 hr,"vitreous humor, topical, 1.2 mg/eye, Group 1 topical ocular 1.2 mg/eye, 4.0 hr, read-out: vitreous humor Average Conc.",4.01 ng/g
same,aqueous humor concentrations,"topical ocular administration, over four hours (FIG. 6)",below 50 ng/g
